Assay results reported in patent publication US11192888B2, “Antibacterial compounds” (priority 2017, dated 2021).
In brackets after ≈: the same amount, converted by molar mass. Where two headings read alike, the source gives them in different places. *1 amine or outer side, *2 acyl side, *3 side chain or, on linkers, in order; H or OH if unused. Where a SMILES comes first, the peptide text is derived from it. [ ]: non-standard residue; d: D form. dAla(ψthiazole) = C[C@@H](N[*:1])c1nc(C(=O)[*:2])cs1; Trp(4-Cl) = N[C@@H](Cc1c[nH]c2cccc(Cl)c12)C(=O)O; Dhb = C/C=C(\N)C(=O)O; Sar = CNCC(=O)O

What was measured:
[1] = system: P. aeruginosa clinical strains and PAO1 (wild-type strain); test: Antibiotic sensitivity of P. aeruginosa clinical strains and PAO1 (MIC); type: cell-based, Pseudomonas aeruginosa
Excerpt: In this regard, four clinical isolates of P. aeruginosa were obtained from the University of Nottingham.

[2] = system: Clostridium difficile strains (21 clinical, 7 reference)
[3] = amide bond, 24-membered ring, PyBOP/HOBt/DIPEA, 0.5 mM

## NCC[C@H](O)C(=O)N[C@@H]1C[C@H](N)[C@@H](O[C@H]2O[C@H](CN)[C@@H](O)[C@H](O)[C@H]2O)[C@H](O)[C@H]1O[C@H]1O[C@H](CO)[C@@H](O)[C@H](N)[C@H]1O [Amikacin]
[1]; strain PAO1
  MIC of antibiotic: <14 µM
[1]; strain W4
  MIC of antibiotic: 24 µM
[1]; strain W14
  MIC of antibiotic: 41 µM
[1]; strain W23
  MIC of antibiotic: <14 µM
[1]; strain W46
  MIC of antibiotic: <14 µM

## C[C@H]1[C@H](NC(=O)/C(=N\OC(C)(C)C(=O)O)c2csc(N)n2)C(=O)N1S(=O)(=O)O [Aztreonam]
[1]; strain PAO1
  MIC of antibiotic: <9 µM
[1]; strain W4
  MIC of antibiotic: 18 µM
[1]; strain W14
  MIC of antibiotic: >92 µM
[1]; strain W23
  MIC of antibiotic: <9 µM
[1]; strain W46
  MIC of antibiotic: <9 µM

## C/C=C1\NC(=O)[C@@H](C)NC(=O)CNC(=O)[C@H](Cc2c[nH]c3cccc(Cl)c23)NC(=O)[C@H](Cc2c[nH]c3ccccc23)NC(=O)c2csc(n2)[C@@H](C)NC(=O)CN(C)C1=O [Compound 9, Cyclo[D-Ala-Thz-Trp-Trp(4-Cl)-Gly-D-Ala-Dhb-Sar]] (cyclo([Dhb][Sar][dAla(ψthiazole)]W[Trp(4-Cl)]G[dA]))
[2]; 28 C. difficile strains
  MIC40: 0.5 µg/mL (≈ 0.593 µM)
  MIC50: 0.50 µg/mL (≈ 0.593 µM)
  MIC90: 0.50 µg/mL (≈ 0.593 µM)
[2]; C. difficile strain 630 (ribotype 012)
  MIC: 0.25 µg/mL (≈ 0.296 µM)
[2]; C. difficile strain ATCC 9689 (ribotype 001)
  MIC: 0.5 µg/mL (≈ 0.593 µM)
[2]; C. difficile strain ATCC 13366
  MIC: 1 µg/mL (≈ 1.19 µM)
[2]; C. difficile strain ATCC 43255
  MIC: 0.25 µg/mL (≈ 0.296 µM)
[2]; C. difficile strain ATCC 700057 (ribotype 038)
  MIC: 0.25 µg/mL (≈ 0.296 µM)
[2]; C. difficile strain ATCC BAA 1875 (ribotype 078)
  MIC: 0.5 µg/mL (≈ 0.593 µM)
[2]; C. difficile strain BI1-FDX^R
  MIC: 0.25 µg/mL (≈ 0.296 µM)
[2]; C. difficile strain Clin. 1
  MIC: 0.5 µg/mL (≈ 0.593 µM)
[2]; C. difficile strain Clin. 2
  MIC: 0.5 µg/mL (≈ 0.593 µM)
[2]; C. difficile strain Clin. 3
  MIC: 0.25 µg/mL (≈ 0.296 µM)
[2]; C. difficile strain Clin. 5
  MIC: 0.5 µg/mL (≈ 0.593 µM)
[2]; C. difficile strain Clin. 6
  MIC: 0.5 µg/mL (≈ 0.593 µM)
[2]; C. difficile strain Clin. 7
  MIC: 0.5 µg/mL (≈ 0.593 µM)
[2]; C. difficile strain Clin. 8
  MIC: 0.5 µg/mL (≈ 0.593 µM)
[2]; C. difficile strain Clin. 9
  MIC: 0.5 µg/mL (≈ 0.593 µM)
[2]; C. difficile strain Clin. 10
  MIC: 0.5 µg/mL (≈ 0.593 µM)
[2]; C. difficile strain Clin. 11
  MIC: 0.5 µg/mL (≈ 0.593 µM)
[2]; C. difficile strain Clin. 12
  MIC: 0.5 µg/mL (≈ 0.593 µM)
[2]; C. difficile strain Clin. 13
  MIC: 0.5 µg/mL (≈ 0.593 µM)
[2]; C. difficile strain Clin. 14
  MIC: 0.5 µg/mL (≈ 0.593 µM)
[2]; C. difficile strain Clin. 15
  MIC: 0.5 µg/mL (≈ 0.593 µM)
[2]; C. difficile strain Clin. 16
  MIC: 0.25 µg/mL (≈ 0.296 µM)
[2]; C. difficile strain Clin. 18
  MIC: 0.5 µg/mL (≈ 0.593 µM)
[2]; C. difficile strain Clin. 20
  MIC: 0.5 µg/mL (≈ 0.593 µM)
[2]; C. difficile strain Clin. 21
  MIC: 0.5 µg/mL (≈ 0.593 µM)
[2]; C. difficile strain Clin. 22
  MIC: 0.5 µg/mL (≈ 0.593 µM)
[2]; C. difficile strain Clin. 23
  MIC: 0.5 µg/mL (≈ 0.593 µM)
[2]; C. difficile strain Clin. 24
  MIC: 0.5 µg/mL (≈ 0.593 µM)

## C=C1NC(=O)[C@@H](C)NC(=O)CNC(=O)[C@H](Cc2c[nH]c3ccccc23)NC(=O)[C@H](Cc2c[nH]c3ccccc23)NC(=O)c2csc(n2)[C@@H](C)NC(=O)CN(C)C1=O [Cyclo(D-Ala-D-Thiazole-L-Trp-L-Trp-Gly-D-Ala-Dha-Sar)]
[3]; from H-dAla-Thz-Trp-Trp-Gly-dAla-Dha-Sar-OH?, DCM
  ring closure, yield after HPLC: 7%

## C=C1NC(=O)[C@@H](C)NC(=O)CNC(=O)[C@H](Cc2c[nH]c3ccc(Cl)c(Cl)c23)NC(=O)[C@H](Cc2c[nH]c3ccccc23)NC(=O)c2csc(n2)[C@@H](C)NC(=O)CN(C)C1=O [Cyclo[D-Ala-Thz-Trp-Trp(4,5-C1)-Gly-D-Ala-Dha-Sar]]
[3]; from H-dAla-Thz-Trp-Trp(4,5-Cl)-Gly-dAla-Dha-Sar-OH?
  ring closure, yield after HPLC: 2%

## C=C1NC(=O)[C@@H](C)NC(=O)CNC(=O)[C@H](Cc2c[nH]c3cccc(Br)c23)NC(=O)[C@H](Cc2c[nH]c3ccccc23)NC(=O)c2csc(n2)[C@@H](C)NC(=O)CN(C)C1=O [Cyclo[D-Ala-Thz-Trp-Trp(4-Br)-Gly-D-Ala-Dha-Sar]]
[3]; from H-dAla-Thz-Trp-Trp(4-Br)-Gly-dAla-Dha-Sar-OH?
  ring closure, yield after HPLC: 7%

## C/C=C1\NC(=O)[C@@H](C)NC(=O)CNC(=O)[C@H](Cc2c[nH]c3cccc(Br)c23)NC(=O)[C@H](Cc2c[nH]c3ccccc23)NC(=O)c2csc(n2)[C@@H](C)NC(=O)CN(C)C1=O [Cyclo[D-Ala-Thz-Trp-Trp(4-Br)-Gly-D-Ala-Dhb-Sar]]
[3]; from H-dAla-Thz-Trp-Trp(4-Br)-Gly-dAla-Dhb-Sar-OH?
  ring closure, yield after HPLC: 35%

## CC(C)/C=C1\NC(=O)[C@@H](C)NC(=O)CNC(=O)[C@H](Cc2c[nH]c3cccc(Br)c23)NC(=O)[C@H](Cc2c[nH]c3ccccc23)NC(=O)c2csc(n2)[C@@H](C)NC(=O)CN(C)C1=O [Cyclo[D-Ala-Thz-Trp-Trp(4-Br)-Gly-D-Ala-Dhl-Sar]]
[3]; from H-dAla-Thz-Trp-Trp(4-Br)-Gly-dAla-Dhl-Sar-OH?
  ring closure, yield after HPLC: 35%

## C[C@H]1NC(=O)CNC(=O)[C@H](Cc2c[nH]c3cccc(Br)c23)NC(=O)[C@H](Cc2c[nH]c3ccccc23)NC(=O)c2csc(n2)[C@@H](C)NC(=O)CN(C)C(=O)/C(=C/c2ccccc2)NC1=O [Cyclo[D-Ala-Thz-Trp-Trp(4-Br)-Gly-D-Ala-Dhp-Sar]]
[3]; from H-dAla-Thz-Trp-Trp(4-Br)-Gly-dAla-Dhp-Sar-OH?
  ring closure, yield after HPLC: 35%

## CC(C)=C1NC(=O)[C@@H](C)NC(=O)CNC(=O)[C@H](Cc2c[nH]c3cccc(Br)c23)NC(=O)[C@H](Cc2c[nH]c3ccccc23)NC(=O)c2csc(n2)[C@@H](C)NC(=O)CN(C)C1=O [Cyclo[D-Ala-Thz-Trp-Trp(4-Br)-Gly-D-Ala-Dhv-Sar]]
[3]; from H-dAla-Thz-Trp-Trp(4-Br)-Gly-dAla-Dhv-Sar-OH?
  ring closure, yield after HPLC: 42%

## C=C1NC(=O)[C@@H](C)NC(=O)CNC(=O)[C@H](Cc2c[nH]c3cccc(Cl)c23)NC(=O)[C@H](Cc2c[nH]c3ccccc23)NC(=O)c2csc(n2)[C@@H](C)NC(=O)CN(C)C1=O [Cyclo[D-Ala-Thz-Trp-Trp(4-C1)-Gly-D-Ala-Dha-Sar]]
[3]; from H-dAla-Thz-Trp-Trp(4-Cl)-Gly-dAla-Dha-Sar-OH?
  ring closure, yield after HPLC: 5%

## C=C1NC(=O)[C@@H](C)NC(=O)CNC(=O)[C@H](Cc2c[nH]c3cccc(C(F)(F)F)c23)NC(=O)[C@H](Cc2c[nH]c3ccccc23)NC(=O)c2csc(n2)[C@@H](C)NC(=O)CN(C)C1=O [Cyclo[D-Ala-Thz-Trp-Trp(4-CF3)-Gly-D-Ala-Dha-Sar]]
[3]; from H-dAla-Thz-Trp-Trp(4-CF3)-Gly-dAla-Dha-Sar-OH?
  ring closure, yield after HPLC: 6%

## C/C=C1\NC(=O)[C@@H](C)NC(=O)CNC(=O)[C@H](Cc2c[nH]c3cccc(Cl)c23)NC(=O)[C@H](Cc2c[nH]c3ccccc23)NC(=O)c2csc(n2)[C@@H](C)NC(=O)CN(C)C1=O [Cyclo[D-Ala-Thz-Trp-Trp(4-Cl)-Gly-D-Ala-Dhb-Sar]]
[3]; from H-dAla-Thz-Trp-Trp(4-Cl)-Gly-dAla-Dhb-Sar-OH?
  ring closure, yield after HPLC: 5%

## C[C@H]1NC(=O)CNC(=O)[C@H](Cc2c[nH]c3cccc(Cl)c23)NC(=O)[C@H](Cc2c[nH]c3ccccc23)NC(=O)c2csc(n2)[C@@H](C)NC(=O)CN(C)C(=O)[C@H]([C@@H](C)O)NC1=O [Cyclo[D-Ala-Thz-Trp-Trp(4-Cl)-Gly-D-Ala-Thr-Sar]]
[3]; from H-dAla-Thz-Trp-Trp(4-Cl)-Gly-dAla-Thr-Sar-OH?
  ring closure, yield after HPLC: 14%

## C=C1NC(=O)[C@@H](C)NC(=O)CNC(=O)[C@H](Cc2c[nH]c3cccc(F)c23)NC(=O)[C@H](Cc2c[nH]c3ccccc23)NC(=O)c2csc(n2)[C@@H](C)NC(=O)CN(C)C1=O [Cyclo[D-Ala-Thz-Trp-Trp(4-F)-Gly-D-Ala-Dha-Sar]]
[3]; from H-dAla-Thz-Trp-Trp(4-F)-Gly-dAla-Dha-Sar-OH?
  ring closure, yield after HPLC: 2%

## C=C1NC(=O)[C@@H](C)NC(=O)CNC(=O)[C@H](Cc2c[nH]c3cccc(OC)c23)NC(=O)[C@H](Cc2c[nH]c3ccccc23)NC(=O)c2csc(n2)[C@@H](C)NC(=O)CN(C)C1=O [Cyclo[D-Ala-Thz-Trp-Trp(4-MeO)-Gly-D-Ala-Dha-Sar]]
[3]; from H-dAla-Thz-Trp-Trp(4-MeO)-Gly-dAla-Dha-Sar-OH?
  ring closure, yield after HPLC: 11%

## C=C1NC(=O)[C@@H](C)NC(=O)CNC(=O)[C@H](Cc2c[nH]c3cccc(Br)c23)NC(=O)[C@H](Cc2c[nH]c3ccccc23)NC(=O)c2csc(n2)[C@@H](COC)NC(=O)CN(C)C1=O [Cyclo[D-Ser(OMe)-Thz-Trp-Trp(4-Br)-Gly-D-Ala-Dha-Sar]]
[3]; from H-dSer(OMe)-Thz-Trp-Trp(4-Br)-Gly-dAla-Dha-Sar-OH?
  ring closure, yield after HPLC: 6%

## C[C@@H](O)[C@H]1C(=O)N2C(C(=O)O)=C(S[C@@H]3CN[C@H](C(=O)N(C)C)C3)[C@H](C)[C@H]12 [Meropenem]
[1]; strain PAO1
  MIC of antibiotic: >45 µM
[1]; strain W4
  MIC of antibiotic: >45 µM
[1]; strain W14
  MIC of antibiotic: 9 µM
[1]; strain W23
  MIC of antibiotic: >45 µM
[1]; strain W46
  MIC of antibiotic: 14 µM

## NC[C@H]1O[C@H](O[C@H]2[C@H](O)[C@@H](O[C@H]3O[C@H](CO)[C@@H](O)[C@H](N)[C@H]3O)[C@H](N)C[C@@H]2N)[C@H](N)C[C@@H]1O [Tobramycin]
[1]; strain PAO1
  MIC of antibiotic: <4 µM
[1]; strain W4
  MIC of antibiotic: 9 µM
[1]; strain W14
  MIC of antibiotic: 25 µM
[1]; strain W23
  MIC of antibiotic: <4 µM
[1]; strain W46
  MIC of antibiotic: <4 µM

## Colistin
[1]; strain PAO1
  MIC of antibiotic: 3 µM
[1]; strain W4
  MIC of antibiotic: 3 µM
[1]; strain W14
  MIC of antibiotic: >8 µM
[1]; strain W23
  MIC of antibiotic: 2 µM
[1]; strain W46
  MIC of antibiotic: 2 µM

## Gentamicin
[1]; strain PAO1
  MIC of antibiotic: <4 µM
[1]; strain W4
  MIC of antibiotic: 8 µM
[1]; strain W14
  MIC of antibiotic: 8 µM
[1]; strain W23
  MIC of antibiotic: <4 µM
[1]; strain W46
  MIC of antibiotic: <4 µM
